Measured values published in ChEMBL document CHEMBL1201862, “PubChem BioAssay data set” (2004).
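Results reflect a 48-hour exposure of cells in 96-well plates to compound at five concentrations. Here, GI50 denotes the concentration required for 50% inhibition of growth.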 Activity calls are given as the source filed them. Rule as the data show it: active = GI50 up to about 1.1 µM and inactive = higher.

What was measured:
Experiment in all cases: NCI-60 cell line screen, 48 h
NCI-H23 = tested on: NCI-H23
OVCAR-5 = tested on: OVCAR-5
SN12C = tested on: SN12C
OVCAR-8 = tested on: OVCAR-8
HOP-62 = tested on: HOP-62
CCRF-CEM = tested on: CCRF-CEM
SK-OV-3 = tested on: SK-OV-3
HCT-116 = tested on: HCT-116
LOX IMVI = tested on: LOX IMVI
HT-29 = tested on: HT-29
DLD-1 = tested on: DLD-1
SNB-75 = tested on: SNB-75
EKVX = tested on: EKVX
M14 = tested on: M14
SR = tested on: SR
SNB-19 = tested on: SNB-19
A549 = tested on: A549
PC-3 = tested on: PC-3
DU-145 = tested on: DU-145
MDA-N = tested on: MDA-N

Measured: GI50

N#Cc1cccc(/C=N/N/C(N)=N/O)c1
inactive: NCI-H23 97.9 µM | OVCAR-5 > 100 µM | SN12C 99.8 µM | OVCAR-8 78.3 µM | HOP-62 92.7 µM | CCRF-CEM 57.7 µM | SK-OV-3 27.5 µM | HCT-116 > 100 µM | LOX IMVI 21.2 µM | HT-29 45.5 µM | DLD-1 53.2 µM | SNB-75 14.8 µM | EKVX 9.18 µM | M14 41.4 µM | SR 48.1 µM | SNB-19 > 100 µM | A549 24.9 µM

CN(CC#N)C1CCCC[C@H]1O (stereo not given in full)
inactive: NCI-H23 > 100 µM | OVCAR-5 > 100 µM | SN12C > 100 µM | OVCAR-8 > 100 µM | HOP-62 > 100 µM | CCRF-CEM > 100 µM | SK-OV-3 > 100 µM | HCT-116 > 100 µM | LOX IMVI > 100 µM | HT-29 > 100 µM | DLD-1 > 100 µM | SNB-75 > 100 µM | EKVX > 100 µM | M14 > 100 µM | SR 46.6 µM | SNB-19 > 100 µM | A549 > 100 µM

NN
inactive: NCI-H23 359 µM | OVCAR-5 514 µM | SN12C 403 µM | OVCAR-8 406 µM | HOP-62 259 µM | CCRF-CEM 72.3 µM | SK-OV-3 1240 µM | PC-3 628 µM | DU-145 793 µM | HCT-116 192 µM | MDA-N 150 µM | LOX IMVI 86.3 µM | HT-29 234 µM | DLD-1 296 µM | SNB-75 851 µM | EKVX 883 µM | M14 468 µM | SR 100 µM | SNB-19 887 µM | A549 145 µM

CC(C)N(C(=O)c1cccc(C(=O)N(C(C)C)C(C)C)c1)C(C)C
inactive: NCI-H23 > 100 µM | OVCAR-5 > 100 µM | SN12C > 100 µM | OVCAR-8 > 100 µM | HOP-62 > 100 µM | CCRF-CEM > 100 µM | SK-OV-3 > 100 µM | HCT-116 > 100 µM | LOX IMVI > 100 µM | HT-29 > 100 µM | DLD-1 > 100 µM | SNB-75 > 100 µM | EKVX > 100 µM | M14 > 100 µM | SR 20.1 µM | SNB-19 > 100 µM | A549 > 100 µM

N=C(N)NS(=O)(=O)c1ccc(NCCc2c3ccccc3nc3ccccc23)cc1
inactive: NCI-H23 > 10 µM | OVCAR-5 > 100 µM | SN12C > 100 µM | OVCAR-8 > 100 µM | HOP-62 > 100 µM | CCRF-CEM 94 µM | SK-OV-3 > 100 µM | HCT-116 41.9 µM | LOX IMVI 70.1 µM | HT-29 64.4 µM | DLD-1 > 100 µM | SNB-75 > 100 µM | EKVX > 100 µM | M14 > 100 µM | SR 33.9 µM | SNB-19 > 100 µM | A549 > 100 µM

CC(C)Cc1ccc(C(C)/C=C2\CCC(CN3CCCC3)C2=O)cc1 (stereo not given)
inactive: NCI-H23 11.5 µM | OVCAR-5 21.8 µM | SN12C 3.97 µM | OVCAR-8 7.01 µM | HOP-62 12.3 µM | CCRF-CEM 2.22 µM | SK-OV-3 19.6 µM | HCT-116 4.13 µM | LOX IMVI 2.88 µM | HT-29 8.09 µM | DLD-1 2.55 µM | SNB-75 14.1 µM | EKVX 18.2 µM | M14 13.8 µM | SR 1.76 µM | SNB-19 12.4 µM | A549 18.3 µM
